Marks after values point to notes of the source that are not given here.

Holding throughout (format): in vivo
The subject of one test is Septoria nodorum. As to the kind of experiment: Test C: wheat glume blotch, preventive spray on wheat seedlings. The settings on record: 200 ppm, 100 = 100% disease control, 0 = no control relative to controls. An excerpt: (§1) General protocol for preparing test suspensions for Tests A-R: The test compounds were first dissolved in acetone in an amount equal to 3% of the final volume and then suspended at the desired concentration (in ppm) in acetone and purified water (50/50 mix) containing 250 ppm of the surfactant Trem® 014 (polyhydric alcohol esters). The resulting test suspensions were then used in tests A-R. In Tests A-M, compounds were sprayed as a 200 ppm test suspension (equivalent to a rate of 500 g/ha) or as a 40 ppm test suspension to the point of runoff on the test plants. In Tests N-R, compounds were sprayed as a 100 g/ha test suspension (equivalent to a rate of 100 ppm) on the test plants at an application volume of 1000 L/ha. The test suspension was sprayed to the point of run-off on wheat seedlings.

Another test relates to Fusarium graminearum. As to the kind of experiment: whole plant or invertebrate. The settings on record: for Test E disease control rating: 200 ppm, 100 = 100% disease control, 0 = no control relative to controls.
In a further test the test system is Alternaria solani. The test is described as follows: Test H: tomato early blight, preventive spray on seedlings.
From the text: as §1

Another test relates to Septoria tritici. The test is described as follows: Test D: wheat leaf blotch, preventive spray on wheat seedlings. The conditions noted are these: 200 ppm, 100 = 100% disease control, 0 = no control relative to controls.
From the text: as §1

Test [1] relates to Puccinia recondita f. sp. tritici. The test is described as follows: Test B: wheat leaf rust, preventive spray on wheat seedlings. The settings on record: 200 ppm, 100 = 100% disease control, 0 = no control relative to controls.
From the text: as §1

In another test the test system is Botrytis cinerea. As to the kind of experiment: Test F: tomato Botrytis, preventive spray on tomato seedlings. The settings on record: 200 ppm, 100 = 100% disease control, 0 = no control relative to controls.
From the text: as §1, with “tomato” for “wheat”

Test [2] relates to Colletotrichum orbiculare. As to the kind of experiment: Test I: cucumber Colletotrichum anthracnose, preventive spray on cucumber seedlings. The settings on record: 100 = 100% disease control, 0 = no control relative to controls; for Test I disease control rating: 200 ppm.
From the text: as §1, with “cucumber” for “wheat”

For test [3], the system named is Erysiphe graminis f. sp. tritici. The test is described as follows: Test A: wheat powdery mildew, preventive spray on wheat seedlings. The settings on record: 200 ppm, 100 = 100% disease control, 0 = no control relative to controls.
From the text: as §1

[4] abbreviates: 200 ppm, 100 = 100% disease control, 0 = no control relative to controls.

As to `COC[C@H](C)Nc1nccc(-c2ncnc(Nc3cccc(I)c3)n2)n1` [Compound 12], in the test on Septoria nodorum, the “Test C disease control rating” value was 100%. Moreover, in the test on Fusarium graminearum, the “Test E disease control rating” value is 96%. For the same molecule, the “Test H disease control rating” value in the test with Alternaria solani (setting [4]) amounted to 98%. In addition, the “Test D disease control rating” value with Septoria tritici is 0%. Also, the “Test B disease control rating” value in test [1] amounted to 79%. The “Test F disease control rating” value in the test with Botrytis cinerea is on record as 37%.

As to `COC[C@H](C)Nc1nccc(-c2ncnc(Nc3ccc(F)cc3)n2)n1` [Compound 13], the “Test C disease control rating” value in the test on Septoria nodorum came out at 100%. Also, the “Test E disease control rating” value in the test on Fusarium graminearum is reported as 96%. Moreover, the “Test H disease control rating” value with Alternaria solani (40 ppm (marked *)) is on record as 98* %. Besides, the “Test D disease control rating” value in the test on Septoria tritici stood at 26%. Also, in test [1], the “Test B disease control rating” value was 100%. Also, the “Test F disease control rating” value with Botrytis cinerea was 87%.

On to `COC[C@H](C)Nc1nccc(-c2ncnc(Nc3ccc(Cl)c(Cl)c3)n2)n1` [Compound 14], for which, in the test on Septoria nodorum, the “Test C disease control rating” value turned out to be 100%. Moreover, the “Test E disease control rating” value in the test with Fusarium graminearum was determined as 92%. Moreover, the “Test H disease control rating” value in the test on Alternaria solani (setting [4]) worked out at 95%. The “Test D disease control rating” value in the test on Septoria tritici is on record as 0%. Besides, the “Test B disease control rating” value in test [1] came out at 79%. Also, the “Test F disease control rating” value in the test on Botrytis cinerea amounted to 55%.

For `COC[C@H](C)Nc1nccc(-c2ncnc(Nc3ccc(C)c(C)c3)n2)n1` [Compound 24], in the test on Septoria nodorum, the “Test C disease control rating” value was found to be 100%. Moreover, the “Test E disease control rating” value in the test with Fusarium graminearum is listed as 99%. The “Test H disease control rating” value in the test with Alternaria solani (setting [4]) came out at 100%. Besides, in the test on Septoria tritici, the “Test D disease control rating” value is 24%. Moreover, in test [1], the “Test B disease control rating” value is recorded as 97%. The “Test F disease control rating” value in the test with Botrytis cinerea amounted to 70%.

In the case of `COC[C@H](C)Nc1nccc(-c2ncnc(Nc3ccc(F)c(F)c3)n2)n1` [Compound 29], the “Test C disease control rating” value in the test with Septoria nodorum amounted to 100%. Further, the “Test E disease control rating” value in the test on Fusarium graminearum came out at 99%. In addition, in the test with Alternaria solani (40 ppm (marked *)), the “Test H disease control rating” value is given as 97* %. In addition, in the test on Septoria tritici, the “Test D disease control rating” value was determined as 90%. Further, the “Test B disease control rating” value in test [1] is reported as 100%. In addition, the “Test F disease control rating” value in the test with Botrytis cinerea is given as 91%.

For `COCC(C)Nc1nccc(-c2ccnc(Nc3c(C)cccc3OC)c2)n1` (centres unmarked) [Compound 85], the “Test C disease control rating” value in the test on Septoria nodorum was 99%. Besides, in test [2], the “Test I disease control rating” value is on record as 96%. For the same molecule, in test [3], the “Test A disease control rating” value amounted to 56%. Moreover, the “Test E disease control rating” value in the test on Fusarium graminearum is on record as 0%. The “Test D disease control rating” value with Septoria tritici came to 0%. Also, the “Test B disease control rating” value in test [1] was 94%. For the same molecule, in the test on Botrytis cinerea, the “Test F disease control rating” value was 93%.

Regarding `COCC(C)Nc1nccc(-c2ccnc(Nc3c(C)ccc4ccccc34)c2)n1` (centres unmarked) [Compound 86], in the test with Septoria nodorum, the “Test C disease control rating” value amounted to 94%. Moreover, the “Test I disease control rating” value in test [2] was 0%. Besides, the “Test A disease control rating” value in test [3] is 27%. Further, in the test on Fusarium graminearum, the “Test E disease control rating” value worked out at 0%. For the same molecule, in the test on Septoria tritici, the “Test D disease control rating” value is 0%. In addition, in test [1], the “Test B disease control rating” value is 55%. In addition, the “Test F disease control rating” value in the test with Botrytis cinerea stood at 96%.

Consider `COCC(C)Nc1nccc(-c2ccnc(Nc3c(C)cc(C)cc3Cl)c2)n1` (centres unmarked) [Compound 87], for which the “Test C disease control rating” value in the test on Septoria nodorum worked out at 100%. In addition, in test [2], the “Test I disease control rating” value turned out to be 88%. The “Test A disease control rating” value in test [3] is given as 87%. Besides, the “Test E disease control rating” value with Fusarium graminearum amounted to 0%. In addition, in the test on Septoria tritici, the “Test D disease control rating” value was 49%. The “Test B disease control rating” value in test [1] is 95%. Further, in the test with Botrytis cinerea, the “Test F disease control rating” value is given as 96%.

For the molecule `COc1cccc(C)c1Nc1cc(-c2ccnc(NC3CCOCC3)n2)ccn1` [Compound 88], in the test with Septoria nodorum, the “Test C disease control rating” value turned out to be 97%. Besides, the “Test I disease control rating” value in test [2] is listed as 0%. The “Test A disease control rating” value in test [3] is listed as 99%. For the same molecule, in the test on Fusarium graminearum, the “Test E disease control rating” value is listed as 91%. Further, the “Test D disease control rating” value in the test on Septoria tritici is on record as 0%. Besides, the “Test B disease control rating” value in test [1] was determined as 100%. Also, the “Test F disease control rating” value in the test on Botrytis cinerea is on record as 0%.

Take `Cc1ccc2ccccc2c1Nc1cc(-c2ccnc(NC3CCOCC3)n2)ccn1` [Compound 89]: in the test on Septoria nodorum, the “Test C disease control rating” value worked out at 100%. Moreover, the “Test I disease control rating” value in test [2] came to 0%. The “Test A disease control rating” value in test [3] is reported as 74%. For the same molecule, the “Test E disease control rating” value in the test on Fusarium graminearum was 89%. Further, the “Test D disease control rating” value in the test with Septoria tritici is on record as 0%. Further, the “Test B disease control rating” value in test [1] turned out to be 95%. Besides, the “Test F disease control rating” value in the test with Botrytis cinerea worked out at 99%.

Consider `COCC(C)Nc1nccc(-c2ccnc(Nc3cc(F)ccc3C)c2)n1` (centres unmarked) [Compound 91], for which the “Test C disease control rating” value with Septoria nodorum was 94%. Further, in test [2], the “Test I disease control rating” value turned out to be 0%. Also, the “Test A disease control rating” value in test [3] is listed as 97%. Besides, the “Test E disease control rating” value with Fusarium graminearum came out at 19%. In addition, the “Test D disease control rating” value in the test on Septoria tritici is listed as 7%. The “Test B disease control rating” value in test [1] was determined as 99%. Further, the “Test F disease control rating” value in the test on Botrytis cinerea came to 98%.

Take `COCC(C)Nc1nccc(-c2ccnc(Nc3c(C)ccc(Cl)c3C)c2)n1` (centres unmarked) [Compound 92]: the “Test C disease control rating” value in the test with Septoria nodorum was determined as 100%. The “Test I disease control rating” value in test [2] was determined as 0%. In addition, the “Test A disease control rating” value in test [3] is reported as 91%. Also, the “Test E disease control rating” value with Fusarium graminearum came to 0%. Besides, the “Test D disease control rating” value in the test on Septoria tritici came out at 65%. Besides, in test [1], the “Test B disease control rating” value is on record as 94%. The “Test F disease control rating” value with Botrytis cinerea is 99%.

In the case of `COCC(C)Nc1nccc(-c2ccnc(Nc3c(C)cc(Cl)cc3Cl)c2)n1` (centres unmarked) [Compound 93], the “Test C disease control rating” value in the test on Septoria nodorum is given as 100%. The “Test I disease control rating” value in test [2] was 0%. Also, the “Test A disease control rating” value in test [3] is listed as 84%. In addition, the “Test E disease control rating” value in the test with Fusarium graminearum worked out at 66%. The “Test D disease control rating” value with Septoria tritici worked out at 78%. Besides, the “Test B disease control rating” value in test [1] is given as 99%. The “Test F disease control rating” value with Botrytis cinerea is reported as 98%.

Consider `COCC(C)Nc1nccc(-c2ccnc(Nc3c(Cl)cccc3C(F)(F)F)c2)n1` (centres unmarked) [Compound 97], for which the “Test C disease control rating” value in the test with Septoria nodorum is 100%. The “Test I disease control rating” value in test [2] is recorded as 93%. Further, the “Test A disease control rating” value in test [3] worked out at 0%. In addition, in the test with Fusarium graminearum, the “Test E disease control rating” value was 48%. Moreover, in the test with Septoria tritici, the “Test D disease control rating” value came to 67%. In test [1], the “Test B disease control rating” value was 97%. Also, in the test with Botrytis cinerea, the “Test F disease control rating” value is 99%.

Regarding `FC(F)(F)c1cccc(Cl)c1Nc1cc(-c2ccnc(NC3CCOCC3)n2)ccn1` [Compound 98], the “Test C disease control rating” value in the test on Septoria nodorum turned out to be 99%. For the same molecule, the “Test I disease control rating” value in test [2] was 0%. Moreover, the “Test A disease control rating” value in test [3] is 89%. For the same molecule, in the test with Fusarium graminearum, the “Test E disease control rating” value stood at 97%. In addition, the “Test D disease control rating” value in the test on Septoria tritici was found to be 83%. For the same molecule, the “Test B disease control rating” value in test [1] is on record as 99%. The “Test F disease control rating” value with Botrytis cinerea worked out at 91%.

For `COCC(C)Nc1nccc(-c2cc(Nc3cccc(F)c3)ncn2)n1` (centres unmarked) [Compound 109, N^6′-(3-fluorophenyl)-N^2-(2-methoxy-1-methylethyl) [4,4′-bipyrimidine]-2,6′-diamine], the pest or weed control at 200 ppm in the test with Septoria nodorum (Parastagonospora nodorum, 216 h, read-out: Test C disease control rating) stood at 94%; in test [2] (Colletotrichum orbiculare, 144 h, read-out: Test I disease control rating) it was 9%; in test [3] (Blumeria graminis, 192 h, read-out: Test A disease control rating), 0%; in the test on Fusarium graminearum (Fusarium graminearum, in Triticum aestivum, 192 h, read-out: Test E disease control rating) it was 0%; with Septoria tritici (Zymoseptoria tritici, 504 h, read-out: Test D disease control rating), 5%; in test [1] (Puccinia recondita, 192 h, read-out: Test B disease control rating), 96%. In addition, the pest or weed control at 200 ppm with Botrytis cinerea (Botrytis cinerea, 120 h, read-out: Test F disease control rating) came to 0%.

The record behind these values is patent US8026359B2, “Fungicidal heterocyclic amines” (E.I. du Pont de Nemours and Company, priority 2007, dated 2011).
